{"source": "patent US8097440B1", "about": "“Engineered microorganisms capable of producing target compounds under anaerobic conditions” (Gevo, Inc., priority 2008, dated 2012)", "key": {"[1]": {"biological_target": "T1, E. coli KARI Ec_IlvC variant Ec_IlvC^B8A71S-his6 (Q110V, S78D, A71S), SEQ ID NO: 29 (Escherichia coli, UniProt P05793, A71S/Q110V/S78D)", "T1 sequence (P05793 with tags, fused parts or gaps A71S/S78D/Q110V)": "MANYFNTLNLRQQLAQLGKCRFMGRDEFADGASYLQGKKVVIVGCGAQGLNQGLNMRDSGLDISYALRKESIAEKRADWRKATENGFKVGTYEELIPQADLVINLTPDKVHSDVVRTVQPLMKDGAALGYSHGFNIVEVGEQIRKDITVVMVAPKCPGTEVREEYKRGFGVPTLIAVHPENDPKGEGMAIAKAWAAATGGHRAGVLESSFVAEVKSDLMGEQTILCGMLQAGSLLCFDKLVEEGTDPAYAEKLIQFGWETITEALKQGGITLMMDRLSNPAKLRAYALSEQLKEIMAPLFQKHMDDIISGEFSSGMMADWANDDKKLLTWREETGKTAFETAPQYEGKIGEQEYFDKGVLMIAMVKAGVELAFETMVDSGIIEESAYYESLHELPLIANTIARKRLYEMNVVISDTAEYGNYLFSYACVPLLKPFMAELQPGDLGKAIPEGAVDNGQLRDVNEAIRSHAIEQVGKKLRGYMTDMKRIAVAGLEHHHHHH", "assay": "KARI cuvette assay, purified Ec_IlvC^B8A71S-his6", "type": "biochemical", "protocol": "(§1) KARI cuvette assay: KARI activity was assayed kinetically by monitoring the decrease in NAD(P)H concentration by measuring the absorbance at 340 nm. A reaction buffer was prepared containing 250 mM potassium phosphate pH 7, 1 mM DTT and 10 mM MgCl2. Cell pellets were resuspended (0.25 g wet weight/mL buffer) in 250 mM potassium phosphate (KPi) buffer containing 1 mM DTT and 10 mM MgCl2. The resuspended cells were lysed by sonication for 1 min with a 50% duty cycle and pelleted at 11000×g and 4° C. for 15 min. A reaction mixture consisting of 910 μl reaction buffer, 50 μl acetolactate, and 20 μl lysate was prepared in a cuvette. The reaction was initiated by addition of 20 μL of 10 mM NAD(P)H. A substrate free control was conducted using reaction buffer without the addition of acetolactate.\nPurification of KARI: Cell pellets used for purification were resuspended in purification buffer A (20 mM Tris, 20 mM imidazol, 100 mM NaCl, 10 mM MgCl2, pH 7.4). KARI was purified by IMAC (Immobilized metal affinity chromatography) over a 1 ml Histrap High Performance (histrap HP) column pre-charged with Nickel (GE Healthcare) using an Akta FPLC system (GE Healthcare). […]"}, "[2]": {"biological_target": "T2, Escherichia coli KARI (ketol-acid reductoisomerase) Ec_IlvC^his6, wild type IlvC (SEQ ID NO: 13) with his6-tag, SEQ ID NO: 15 (Escherichia coli, UniProt P05793)", "T2 sequence (P05793 with tags, fused parts or gaps)": "T1 sequence (P05793 with tags, fused parts or gaps A71S/S78D/Q110V) with S71A, D78S, V110Q", "assay": "KARI cuvette assay, purified Ec_IlvC^his6 (parent / wild type)", "type": "biochemical, E. coli", "conditions": "relative to Ec_IlvC^his6 with NADPH", "protocol": "as §1, with “The reaction was initiated by addition of 20 μL of 10 mM NAD(P)H. A substrate free control was conducted using reaction buffer without the addition of acetolactate.” left out\nOnly 20% of the enzymes of the recombination library were active on NADH. After screening 1,000 clones using the NADH depletion assay at 340 nm, 26 KARI variants were selected for a rescreen by the high-throughput assay described in Example 14 and eight thereof were expressed in 25 ml LBamp medium in shake flasks according to the protocol for cell growth and protein expression in shake flasks as described in Example 14, purified according to the protocol for purification of KARI enzymes as described in Example 14, and NAD(P)H depletion at 340 nm was measured again. […] The KM values of variants Ec_llvC^2H10-his6 and Ec_llvC^6E6-his6 were measured and the catalytic efficiencies were calculated."}}, "note": "Positions count from the first letter of the chain named.", "data": [{"smiles": "NC(=O)C1=CN([C@@H]2O[C@H](COP(=O)(O)OP(=O)(O)OC[C@H]3O[C@@H](n4cnc5c(N)ncnc54)[C@H](O)[C@@H]3O)[C@@H](O)[C@H]2O)C=CC1", "note": "[NADH, nicotinamide adenine dinucleotide]", "values": [{"measurement": "kcat/KM", "setting": "[1]; purified, acetolactate as substrate", "result": 38330, "unit": "M⁻¹ s⁻¹"}, {"measurement": "(kcat/KM with NADH)/(kcat/KM of Ec_IlvC^his6 with NADPH)", "setting": "[1]; relative to Ec_IlvC^his6 with NADPH", "result": 44, "unit": "%"}, {"measurement": "(kcat/KM with NADH)/(kcat/KM of Ec_IlvC^his6 with NADPH)", "setting": "[2]", "result": 1, "unit": "%"}]}]}
